Reference: patent publication US12509460B2 (Skyhawk Therapeutics, Inc., priority 2019, dated 2025)
Where two headings read alike, the source gives them in different places.

Key:
[1] = tested on: SMN protein in spinal muscular atrophy (SMA) patient fibroblasts (GM03813, Coriell); assay: SMN protein assay, Mesoscale Discovery (MSD); assay type: cell-based, human; conditions: for EC50: SMA patient fibroblasts GM03813, 48 hours, MSD, read-out: SMN2 protein EC50
Procedure, shortened: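 SMA patient fibroblasts (GM03813) seeded at 7000 cells/well and exposed to compound at 2.5 μM to 0.6 nM for 48 hours. Lysates assayed for SMN by MSD immunoassay, with absolute SMN amount calculated from a per-plate SMN standard curve (1 μg/ml to 19.5 pg/ml).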

[2] = tested on: SMN FL and SMN Δ7 in spinal muscular atrophy (SMA) patient fibroblasts (GM03813, Coriell); assay: Quantitative splicing assay (SMN), qPCR; assay type: cell-based, human; conditions: Homo sapiens, Fibroblast, 24 h, read-out: SMN2 Splicing FL EC50
Experimental: Spinal muscular atrophy (SMA) patient fibroblasts (GM03813, Coriell) are plated in 96-well plates at 50,000 cells/well. […] Treated cells are lysed and cDNA synthesized using the Fast Advanced Cells-to-Ct kit (Thermofisher A35378) according to the manufacturer's instructions. 2 μL of each cDNA are used in qPCR reactions. […] Reactions are run in a Quant Studio 6 qPCR instrument with default settings.

[3] = Quantitative splicing assay (HTT), qPCR; assay type: cell-based, human; conditions: Homo sapiens, GM04724, 24 h, GM04724 lymphoblasts, read-out: HTT Splicing: E49-50 EC50
Procedure, shortened: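 Patient lymphoblasts (50,000 cells/well) dosed immediately after plating for 24 h at 2.5 uM to 0.15 nM in 0.1% DMSO. Lysed, cDNA made directly from cells, and inclusion of the intron 49 cryptic exon quantified by TaqMan qPCR.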

[4] = tested on: mHTT protein in GM04724 (CAG 70/20) Huntington's disease patient lymphoblast cells; assay: mHTT protein assay, 2B7-MW1 assay via Mesoscale Discovery (MSD); assay type: cell-based, human
Procedure, shortened: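 Patient lymphoblasts treated 48 h with compound from 10 μM to 0.6 nM. mHTT quantified by MSD 2B7-MW1 immunoassay, whose signal depends on polyQ expansion and HTT size. Viability measured on a replicate plate by CellTiter Glo.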

[5] = tested on: MDR1-MDCK cell monolayers; assay: Blood-brain-barrier (BBB) penetration potential via MDCK-MDR1 permeability assay
MDR1 = assay: as above; conditions: dog, MDCK-MDR1, pH 7.4, MDCK-MDR1: Efflux
MDR1 (P-gp) = assay: as above; conditions: dog; for Papp A→B at 120 min, 5 μM: MDCK-MDR1, pH 7.4, MDCK-MDR1: Papp A-B; for Papp B→A at 120 min, 5 μM: MDCK-MDR1, pH 7.4, MDCK-MDR1: Papp B-A
[6] = SMA patient fibroblasts GM03813, 24 h, qPCR
[7] = GM04724 Huntington's disease patient lymphoblasts

Structure (SMILES) | EC50 [1] [nM] | EC50 [2, 6] [nM] | EC50 ([3]; qPCR) [nM] | EC50 [4, 7] [nM] | MDCK-MDR1: % Recov A-B ([5]; A-B direction) [%] | MDCK-MDR1: % Recov B-A ([5]; B-A direction) [%] | efflux ratio at 120 min, 5 μM (MDR1; efflux ratio) | Papp A→B at 120 min, 5 μM (MDR1 (P-gp); A-B direction) [×10⁻⁶ cm/s] | Papp B→A at 120 min, 5 μM (MDR1 (P-gp); B-A direction) [×10⁻⁶ cm/s] | SMN2 protein EC50 ([1]; SMA patient fibroblasts (GM03813), 48 hours) | EC50 ([2]; SMA patient fibroblasts (GM03813)) [nM] | EC50 [3] [nM] | EC50 ([4]; GM04724 (CAG 70/20) Huntington's disease patient lymphoblasts) [nM] | MDCK-MDR1: % Recov A-B ([5]; A-B) [%] | MDCK-MDR1: % Recov B-A ([5]; B-A) [%] | efflux ratio at 120 min, 5 μM (MDR1) | Papp A→B at 120 min, 5 μM (MDR1 (P-gp); A-B) [×10⁻⁶ cm/s] | Papp B→A at 120 min, 5 μM (MDR1 (P-gp); B-A) [×10⁻⁶ cm/s]
CN(c1ccc(-c2ccc(-n3cnc(Cl)c3)cc2O)nn1)C1CC2CC(F)(F)C(C1)N2 (single isomer, unassigned) [Compound 37A] | 16 to 50 | 16 to 50 | 0.01 to 15 | 16 to 50 | 52 | 69 | 2 | 17.3 | 34.4 |  |  |  |  |  |  |  |  | 
CNC(=O)c1cc(O)c(-c2ccc(N(C)[C@H]3C[C@@H]4CC[C@@H](N4)[C@H]3F)nn2)cc1F [Compound 47B, 2-fluoro-4-(6-(((1R,2R,3S,5S)-2-fluoro-8-azabicyclo[3.2.1]octan-3-yl)(methyl)amino)pyridazin-3-yl)-5-hydroxy-N-methylbenzamide] | 16 to 50 | 51 to 100 | 51 to 100 | 51 to 100 | 101 | 120 | 40 | 1.26 | 49.8 |  |  |  |  |  |  |  |  | 
Cc1nc2cc(-c3ccc(N(C)[C@H]4C[C@@H]5CC[C@H]([C@H]4F)N5C)nn3)c(O)cc2c(=O)n1C [Compound 105B, 7-(6-(((1R,2R,3S,5S)-2-fluoro-8-methyl-8-azabicyclo[3.2.1]octan-3-yl)(methyl)amino)pyridazin-3-yl)-6-hydroxy-2,3-dimethylquinazolin-4(3H)-one] |  |  |  |  |  |  |  |  |  | E (501 ≤ E ≤ 10.000) | 101 to 500 | 51 to 100 | 16 to 50 | 114 | 119 | 50 | 1.28 | 64.3
CN(c1ccc(-c2cc(F)c(-c3ccn(C)c(=O)c3)cc2O)nn1)[C@@H]1C[C@H]2CC[C@H](N2)[C@@H]1F [Compound 1A, 4-(2-fluoro-4-(6-(((1S,2S,3R,5R)-2-fluoro-8-azabicyclo[3.2.1]octan-3-yl)(methyl)amino)pyridazin-3-yl)-5-hydroxyphenyl)-1-methylpyridin-2(1H)-one] | 0.01 to 15 | 0.01 to 15 | 0.01 to 15 | 0.01 to 15 | 83 | 88 | 81 | 0.61 | 49.3 |  |  |  |  |  |  |  |  | 
CN(c1ccc(-c2cc3c(=O)n(C)ccc3s2)nn1)[C@H]1C[C@@H]2CC[C@@H](N2)[C@H]1F (single isomer, unassigned) [Compound 68B] | 16 to 50 | 51 to 100 | 51 to 100 | 101 to 500 | 92 | 91 | 113 | 0.4 | 44.7 |  |  |  |  |  |  |  |  | 
CN(c1ccc(-c2cc3cccnc3cc2O)nn1)[C@@H]1C[C@H]2CCC[C@H](N2)[C@@H]1F [Compound 41A, 6-(6-(((1S,2S,3R,5R)-2-fluoro-9-azabicyclo[3.3.1]nonan-3-yl)(methyl)amino)pyridazin-3-yl)quinolin-7-ol] | 0.01 to 15 | 16 to 50 | 51 to 100 | 0.01 to 15 | 64 | 98 | 24 | 2 | 48.1 |  |  |  |  |  |  |  |  | 
CN(c1ccc(-c2ccc(-c3cnccn3)cc2O)nn1)[C@@H]1C[C@H]2CCC[C@H](N2)[C@@H]1F [Compound 24A, 2-(6-(((1S,2S,3R,5R)-2-fluoro-9-azabicyclo[3.3.1]nonan-3-yl)(methyl)amino)pyridazin-3-yl)-5-(pyrazin-2-yl)phenol] | 0.01 to 15 | 101 to 500 | 51 to 100 | 51 to 100 | 79 | 90 | 13 | 4.73 | 61.3 |  |  |  |  |  |  |  |  | 
